Measured values from patent publication US20240182785A1, “COMPOUND, COMPOSITION, CURED PRODUCT, OPTICALLY ANISOTROPIC BODY, OPTICAL ELEMENT, AND LIGHT GUIDE ELEMENT” (FUJIFILM Corporation, priority 2021, published 2024).

Legend:
Assay type in all cases: physicochemical
[1] = Evaluation of light resistance of optically anisotropic layer (Super Xenon Weather Meter); settings: rate of change in Re of cured layer (25 parts compound, 75 parts L-1), 5 million lx, 50 hours, 63° C., 50% RH, oxygen-blocking
Description: (§1) As shown below, the light resistance and the durability of the optically anisotropic layer produced using the composition containing each of the compounds A-1 to A-11 and the compounds B-1 and B-2 were evaluated.
(§2) A coating liquid having the following composition was prepared and applied by spin-coating, onto a rubbing-treated glass attached with an alignment film. Each composition was irradiated with ultraviolet rays of 300 mJ/cm^2 through a filter that cuts light having a wavelength of 350 nm or less on a hot plate which had been heated to a temperature at which a nematic phase is shown, whereby an optically anisotropic layer for a light resistance/durability test was produced.
(§3) The polymerizable liquid crystal compound L-1 is a mixture obtained by mixing at a
(§4) ratio of the following L-1-1/L-1-2/L-1-3=84/14/2 (in terms of mass ratio).
The produced optically anisotropic layers for light resistance/durability tests were irradiated with light using a Super Xenon Weather Meter SX75 manufactured by Suga Test Instruments Co., Ltd. Using KU-1000100 manufactured by King Seisakusho Co., Ltd. as a UV cut filter, a light resistance test was carried out by irradiation with 5 million lx of light for 50 hours under an oxygen-blocking condition. The temperature of the specimen to be tested (the temperature inside the test device) was set to 63° C. The relative humidity in the test device was 50% RH.
The Re of the optically anisotropic layer before and after the light resistance test was measured, the light resistance in a case where the rate of change in Re described below was less than 10% was evaluated as A, and the light resistance in a case where the rate of change in Re was 10% or more was evaluated as B. The smaller the rate of change in Re, the more excellent the light resistance.
(§5) Rate of change in Re (%)=[100×{|(Re after test)−(Re before test)|}/(Re before test)]
(§6) Re was measured with Axoscan manufactured by Axometrics Inc. at a wavelength of 550 nm, and the measurement temperature was set to room temperature.

[2] = Evaluation of liquid crystallinity (hot stage, polarization microscope); design: key: A case of having liquid crystallinity was evaluated as A; a case of having no liquid crystallinity was evaluated as B; settings: heated on a hot stage
Description: The respective compounds (the compounds A-1 to A-11 and the compounds B-1 and B-2) were heated on a hot stage and observed with a polarization microscope, and the phase transition temperature was measured to evaluate the presence or absence of the liquid crystallinity. A case of having liquid crystallinity was evaluated as A, and a case of having no liquid crystallinity was evaluated as B. The results are shown in Table 1.
Since the compound A-8 has melting points of 200° C. or higher and undergoes a polymerization reaction during heating, liquid crystallinity could not be evaluated.

[3] = Measurement of Δn (refractive index anisotropy), wedge-shaped liquid crystal cell; settings: 550 nm, 30° C. or lower limit temperature of nematic phase +0 to 10° C.; some compounds extrapolated from 1/2 mixture with L-1-1
Description: The Δn of each of the compounds (the compounds A-1 to A-11 and the compounds B-1 and B-2), which are the compounds to be measured, was measured by a method using a wedge-shaped liquid crystal cell described on page 202 in the Liquid crystal handbook (edited by the liquid crystal handbook editorial board, published by Maruzen Co., Ltd., 2000). Δn was defined as a measured value at a wavelength of 550 nm at 30° C. or the lower limit temperature of the nematic phase +0° C. to 10° C. In a case of a compound which is liable to crystallize or a compound having no liquid crystallinity, evaluation was carried out using a mixture thereof with the other liquid crystal compound, and Δn was estimated from the extrapolated value of the measured value thereof. The following L-1-1 was used as the other liquid crystal compound. As the above mixture, a mixture obtained by mixing at a ratio of the compound to be measured/the L-1-1=1/2 (in terms of mass ratio) was used.
A case where Δn was 0.40 or more was evaluated as A, a case where Δn was 0.35 or more and less than 0.40 was evaluated as B, a case where Δn was 0.30 or more and less than 0.35 was evaluated as C, and a case where Δn was less than 0.30 was evaluated as D. The results are shown in Table 1.

[4] = Evaluation of durability of optically anisotropic layer (moisture-heat resistance test); settings: rate of change in Re of cured layer (25 parts compound, 75 parts L-1), 136 hours at 100° C., humidity 95%
Description: as §1, §2, §3, §4, §5, §6
The produced optically anisotropic layer was allowed to be left for 136 hours at 100° C. and a humidity of 95%, whereby a moisture-heat resistance test was carried out. The rate of change in Re before and after the durability test was evaluated, the durability in a case where the rate of change in Re was less than 10% was evaluated as A, and the durability in a case where the rate of change in Re was 10% or more was evaluated as B. The smaller the rate of change in Re, the more excellent the durability.

[5] = Evaluation of solubility in cyclopentanone; settings: precipitation concentration in cyclopentanone at 25° C.
Description: The solubility of each of the compounds (the compounds A-1 to A-11 and the compounds B-1 and B-2) in cyclopentanone was evaluated.

Liquid crystallinity [2]: A
Compound: C=CC(=O)OCCCCOc1ccc(C(=O)Nc2ccc(C#Cc3ccc4cc(OCCCCOC(=O)C=C)ccc4c3)cc2C(F)(F)F)cc1 [Compound B-2, reference compound]
Light resistance [1]: A (the light resistance in a case where the rate of change in Re described below was less than 10% was evaluated as A) | Δn [3]: C (a case where Δn was 0.30 or more and less than 0.35 was evaluated as C) | Durability [4]: A (the durability in a case where the rate of change in Re was less than 10% was evaluated as A) | Solubility [5]: A (the solubility in a case where the precipitation concentration was 5% by mass or more was evaluated as A)
